Series [1] is described as follows: stability. To be noted: crystalline salt. Type of series: physicochemical.
A short description of series [2]: water solubility. Type of series: physicochemical. To be noted: in water.

Structures are written as SMILES.

For `C=CC1=C(C(=O)O)N2C(=O)[C@@H](NC(=O)/C(=N\O)c3csc(N)n3)[C@H]2SC1.N` [Crystalline Cefdinir ammonium salt, Cefdinir ammonium salt], the stability result in series [1] is “good”. Further, the water solubility result in series [2] is on record as “complete”.

For the origin of these results see patent publication US20080033169A1, “Crystalline Form Of Cefdinir Ammonium Salt As An Intermediate For The Preparation Of Pure Cefdinir” (priority 2004, published 2008).
